According to ChEMBL document CHEMBL3132769, “Fragment growing to retain or alter the selectivity of anchored kinase hinge-binding fragments” (Medchemcomm, 2014):

Key:
[1] = biological target: T1, Serine/threonine-protein kinase Sgk2 (Homo sapiens) (UniProt Q9HBY8); assay: Inhibition of human full length SGK2 expressed in baculovirus assessed as substrate phosphorylation using fluorescence-labelled peptides as substrate at 420 uM after 90 mins by microfluidic peptide phosphorylation assay
T1 sequence (whole entry): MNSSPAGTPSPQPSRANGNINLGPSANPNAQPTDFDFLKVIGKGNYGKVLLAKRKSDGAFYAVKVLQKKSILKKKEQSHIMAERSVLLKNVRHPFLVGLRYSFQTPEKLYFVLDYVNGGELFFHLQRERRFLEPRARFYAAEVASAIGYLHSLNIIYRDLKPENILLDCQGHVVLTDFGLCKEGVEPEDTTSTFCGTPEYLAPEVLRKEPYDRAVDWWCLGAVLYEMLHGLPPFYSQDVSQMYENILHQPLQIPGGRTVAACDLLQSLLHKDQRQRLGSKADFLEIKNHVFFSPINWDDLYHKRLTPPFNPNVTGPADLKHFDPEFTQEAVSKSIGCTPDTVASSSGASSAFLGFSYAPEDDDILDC

[2] = biological target: T2, Serine/threonine-protein kinase 3 (Homo sapiens) (UniProt Q13188); assay: Inhibition of human full length MST2 expressed in baculovirus assessed as substrate phosphorylation using fluorescence-labelled peptides as substrate at 0.2 uM after 90 mins by microfluidic peptide phosphorylation assay
T2 sequence (whole entry): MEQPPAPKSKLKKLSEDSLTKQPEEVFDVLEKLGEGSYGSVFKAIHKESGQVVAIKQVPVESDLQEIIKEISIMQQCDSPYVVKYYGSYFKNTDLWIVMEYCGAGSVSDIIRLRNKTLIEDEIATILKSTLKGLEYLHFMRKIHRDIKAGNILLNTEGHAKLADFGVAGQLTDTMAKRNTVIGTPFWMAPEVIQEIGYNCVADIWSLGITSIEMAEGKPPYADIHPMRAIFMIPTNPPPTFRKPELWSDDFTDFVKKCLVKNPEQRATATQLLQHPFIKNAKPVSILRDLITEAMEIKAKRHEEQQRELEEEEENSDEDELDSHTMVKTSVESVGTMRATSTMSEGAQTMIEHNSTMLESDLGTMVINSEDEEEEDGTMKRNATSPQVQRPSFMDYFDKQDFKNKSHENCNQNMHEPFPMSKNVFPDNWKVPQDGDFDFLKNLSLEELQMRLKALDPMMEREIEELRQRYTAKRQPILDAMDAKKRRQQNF

[3] = biological target: Mitogen-activated protein kinase 14 (Homo sapiens) (UniProt Q16539); assay: Inhibition of human truncated p38 alpha expressed in Escherichia coli cell assessed as substrate phosphorylation using fluorescence-labelled peptides as substrate at 0.1 uM after 90 mins by microfluidic peptide phosphorylation assay
Chain of Mitogen-activated protein kinase 14 (Homo sapiens) (Q16539 whole entry, the tested form may be a part): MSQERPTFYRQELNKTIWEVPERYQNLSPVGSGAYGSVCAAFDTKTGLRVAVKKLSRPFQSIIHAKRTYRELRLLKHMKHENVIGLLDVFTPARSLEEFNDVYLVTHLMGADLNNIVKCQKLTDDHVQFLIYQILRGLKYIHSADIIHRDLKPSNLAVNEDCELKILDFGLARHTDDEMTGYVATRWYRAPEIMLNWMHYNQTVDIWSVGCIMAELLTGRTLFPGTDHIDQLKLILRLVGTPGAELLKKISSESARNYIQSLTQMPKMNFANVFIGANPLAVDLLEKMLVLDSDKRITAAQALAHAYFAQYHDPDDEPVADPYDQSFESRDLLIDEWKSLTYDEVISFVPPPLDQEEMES

[4] = biological target: Fibroblast growth factor receptor 4 (Homo sapiens) (UniProt P22455); conditions: 0.1 uM
Chain of Fibroblast growth factor receptor 4 (Homo sapiens) (P22455 22-802 limits assumed): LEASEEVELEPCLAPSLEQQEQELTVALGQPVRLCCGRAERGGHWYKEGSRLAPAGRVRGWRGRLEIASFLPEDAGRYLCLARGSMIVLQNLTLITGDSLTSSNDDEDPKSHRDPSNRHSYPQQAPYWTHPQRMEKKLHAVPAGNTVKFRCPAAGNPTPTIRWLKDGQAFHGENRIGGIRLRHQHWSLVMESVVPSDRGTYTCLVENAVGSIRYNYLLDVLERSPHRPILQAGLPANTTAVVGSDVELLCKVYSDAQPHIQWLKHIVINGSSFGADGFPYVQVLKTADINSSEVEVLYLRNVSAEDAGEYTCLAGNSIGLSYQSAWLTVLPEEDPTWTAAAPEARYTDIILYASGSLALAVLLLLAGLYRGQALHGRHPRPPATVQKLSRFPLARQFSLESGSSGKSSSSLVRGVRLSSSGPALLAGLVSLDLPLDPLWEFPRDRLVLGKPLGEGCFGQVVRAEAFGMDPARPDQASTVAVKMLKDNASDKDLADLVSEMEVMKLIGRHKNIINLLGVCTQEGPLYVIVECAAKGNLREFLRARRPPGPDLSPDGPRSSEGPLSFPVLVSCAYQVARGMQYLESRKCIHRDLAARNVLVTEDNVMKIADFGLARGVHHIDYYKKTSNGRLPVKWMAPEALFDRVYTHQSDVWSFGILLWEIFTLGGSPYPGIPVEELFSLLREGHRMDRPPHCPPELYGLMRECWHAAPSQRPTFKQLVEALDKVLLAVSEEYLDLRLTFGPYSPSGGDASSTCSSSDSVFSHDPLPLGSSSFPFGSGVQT
Description: Inhibition of human FGFR4 catalytic domain expressed in baculovirus assessed as substrate phosphorylation using fluorescence-labelled peptides as substrate at 0.1 uM after 90 mins by microfluidic peptide phosphorylation assay

[5] = biological target: T3, Interleukin-1 receptor-associated kinase 4 (Homo sapiens) (UniProt Q9NWZ3); assay: Inhibition of human IRAK4 catalytic domain expressed in baculovirus assessed as substrate phosphorylation using fluorescence-labelled peptides as substrate at 0.1 uM after 90 mins by microfluidic peptide phosphorylation assay
T3 sequence (whole entry): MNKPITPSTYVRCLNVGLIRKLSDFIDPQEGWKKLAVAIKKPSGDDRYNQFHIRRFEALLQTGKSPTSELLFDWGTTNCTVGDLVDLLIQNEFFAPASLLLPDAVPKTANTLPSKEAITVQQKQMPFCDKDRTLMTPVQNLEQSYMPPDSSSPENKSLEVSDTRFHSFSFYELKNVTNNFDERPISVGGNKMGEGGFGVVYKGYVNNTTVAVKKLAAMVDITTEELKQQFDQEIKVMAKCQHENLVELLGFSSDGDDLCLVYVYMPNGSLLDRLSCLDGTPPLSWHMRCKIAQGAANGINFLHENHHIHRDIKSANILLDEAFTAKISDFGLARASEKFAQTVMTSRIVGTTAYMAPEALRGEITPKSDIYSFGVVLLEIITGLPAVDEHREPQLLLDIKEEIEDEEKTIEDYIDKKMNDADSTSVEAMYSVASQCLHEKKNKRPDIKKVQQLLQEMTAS

[6] = biological target: Hepatocyte growth factor receptor (Homo sapiens) (UniProt P08581); conditions: 0.1 uM
Chain of Hepatocyte growth factor receptor (Homo sapiens) (P08581 whole entry, the tested form may be a part): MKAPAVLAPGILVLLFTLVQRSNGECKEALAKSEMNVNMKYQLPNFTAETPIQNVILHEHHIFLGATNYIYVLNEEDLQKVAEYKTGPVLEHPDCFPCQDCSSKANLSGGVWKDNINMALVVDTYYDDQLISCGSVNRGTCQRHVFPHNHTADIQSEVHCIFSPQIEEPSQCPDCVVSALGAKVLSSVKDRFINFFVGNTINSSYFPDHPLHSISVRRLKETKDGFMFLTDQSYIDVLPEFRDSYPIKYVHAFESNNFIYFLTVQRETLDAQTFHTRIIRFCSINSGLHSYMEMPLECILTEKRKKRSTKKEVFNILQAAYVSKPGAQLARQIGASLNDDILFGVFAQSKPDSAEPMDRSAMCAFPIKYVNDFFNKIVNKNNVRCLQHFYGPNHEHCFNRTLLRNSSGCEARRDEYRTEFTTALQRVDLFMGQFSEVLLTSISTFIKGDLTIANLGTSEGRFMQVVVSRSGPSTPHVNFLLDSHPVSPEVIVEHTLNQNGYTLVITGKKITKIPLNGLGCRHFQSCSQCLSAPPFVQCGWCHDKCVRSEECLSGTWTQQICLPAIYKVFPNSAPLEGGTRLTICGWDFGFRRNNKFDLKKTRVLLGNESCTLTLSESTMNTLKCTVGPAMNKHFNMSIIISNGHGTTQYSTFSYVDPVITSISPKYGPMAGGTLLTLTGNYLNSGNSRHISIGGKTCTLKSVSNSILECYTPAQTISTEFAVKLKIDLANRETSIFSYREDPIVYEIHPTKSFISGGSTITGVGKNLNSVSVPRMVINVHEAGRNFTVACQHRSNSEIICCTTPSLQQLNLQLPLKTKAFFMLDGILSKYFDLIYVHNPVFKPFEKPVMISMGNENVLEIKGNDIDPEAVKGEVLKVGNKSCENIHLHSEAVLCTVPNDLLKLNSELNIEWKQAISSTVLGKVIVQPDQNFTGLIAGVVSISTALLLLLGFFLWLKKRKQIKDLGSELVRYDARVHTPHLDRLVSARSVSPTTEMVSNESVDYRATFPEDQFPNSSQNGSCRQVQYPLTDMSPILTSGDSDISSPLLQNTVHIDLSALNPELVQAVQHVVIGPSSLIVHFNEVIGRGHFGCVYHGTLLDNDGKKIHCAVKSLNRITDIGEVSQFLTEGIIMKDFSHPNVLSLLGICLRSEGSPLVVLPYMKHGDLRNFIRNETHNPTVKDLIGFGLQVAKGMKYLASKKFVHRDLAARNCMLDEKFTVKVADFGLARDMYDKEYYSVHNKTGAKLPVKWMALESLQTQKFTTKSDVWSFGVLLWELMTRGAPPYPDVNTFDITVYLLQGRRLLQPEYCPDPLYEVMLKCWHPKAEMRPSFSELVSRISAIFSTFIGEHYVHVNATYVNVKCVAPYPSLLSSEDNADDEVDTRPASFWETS
Description: Inhibition of human MET cytoplasmic domain expressed in baculovirus assessed as substrate phosphorylation using fluorescence-labelled peptides as substrate at 0.1 uM after 90 mins by microfluidic peptide phosphorylation assay

[7] = biological target: Protein kinase C beta type (Homo sapiens) (UniProt P05771); assay: Inhibition of human truncated PKC beta1 expressed in baculovirus assessed as substrate phosphorylation using fluorescence-labelled peptides as substrate at 9 uM after 90 mins by microfluidic peptide phosphorylation assay
[8] = biological target: T2, Serine/threonine-protein kinase 3 (Homo sapiens); assay: Inhibition of human full length MST2 expressed in baculovirus assessed as substrate phosphorylation using fluorescence-labelled peptides as substrate at 70 uM after 90 mins by microfluidic peptide phosphorylation assay
[9] = biological target: MAP kinase-activated protein kinase 2 (Homo sapiens) (UniProt P49137); assay: Inhibition of human full length MAPKAPK2 expressed in baculovirus assessed as substrate phosphorylation using fluorescence-labelled peptides as substrate at 70 uM after 90 mins by microfluidic peptide phosphorylation assay
Chain of MAP kinase-activated protein kinase 2 (Homo sapiens) (P49137 whole entry, looked up, canonical isoform): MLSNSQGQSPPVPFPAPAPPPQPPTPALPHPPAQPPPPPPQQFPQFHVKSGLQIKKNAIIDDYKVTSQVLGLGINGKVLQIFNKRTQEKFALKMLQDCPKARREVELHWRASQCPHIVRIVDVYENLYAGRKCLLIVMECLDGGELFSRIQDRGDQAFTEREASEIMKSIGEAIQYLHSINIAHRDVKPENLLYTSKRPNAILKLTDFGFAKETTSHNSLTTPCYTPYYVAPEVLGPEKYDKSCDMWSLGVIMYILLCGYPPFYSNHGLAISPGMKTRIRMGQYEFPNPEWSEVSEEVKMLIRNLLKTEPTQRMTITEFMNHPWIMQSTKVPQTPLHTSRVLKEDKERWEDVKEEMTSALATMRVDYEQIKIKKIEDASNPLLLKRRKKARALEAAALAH

[10] = biological target: Casein kinase I isoform alpha (Homo sapiens) (UniProt P48729); assay: Inhibition of human full length CSNK1A1 expressed in baculovirus assessed as substrate phosphorylation using fluorescence-labelled peptides as substrate at 70 uM after 90 mins by microfluidic peptide phosphorylation assay
Chain of Casein kinase I isoform alpha (Homo sapiens) (P48729 2-337 limits assumed): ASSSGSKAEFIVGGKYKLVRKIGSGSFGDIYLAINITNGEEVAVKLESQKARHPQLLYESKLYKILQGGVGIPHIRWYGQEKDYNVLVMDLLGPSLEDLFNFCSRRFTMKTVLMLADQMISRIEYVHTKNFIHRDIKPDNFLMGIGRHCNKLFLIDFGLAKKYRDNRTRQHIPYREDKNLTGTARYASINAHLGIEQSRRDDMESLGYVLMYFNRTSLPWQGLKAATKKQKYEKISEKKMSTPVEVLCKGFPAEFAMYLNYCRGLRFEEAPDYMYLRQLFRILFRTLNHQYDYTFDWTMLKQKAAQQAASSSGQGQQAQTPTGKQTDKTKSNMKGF

[11] = biological target: Insulin-like growth factor 1 receptor (Homo sapiens) (UniProt P08069); assay: Inhibition of human IGF1R catalytic domain expressed in baculovirus assessed as substrate phosphorylation using fluorescence-labelled peptides as substrate at 95 uM after 90 mins by microfluidic peptide phosphorylation assay
[12] = biological target: Serine/threonine-protein kinase PAK 2 (Homo sapiens) (UniProt Q13177); assay: Inhibition of human truncated PAK2 expressed in Escherichia coli cell assessed as substrate phosphorylation using fluorescence-labelled peptides as substrate at 8 uM after 90 mins by microfluidic peptide phosphorylation assay
Chain of Serine/threonine-protein kinase PAK 2 (Homo sapiens) (Q13177 whole entry, the tested form may be a part): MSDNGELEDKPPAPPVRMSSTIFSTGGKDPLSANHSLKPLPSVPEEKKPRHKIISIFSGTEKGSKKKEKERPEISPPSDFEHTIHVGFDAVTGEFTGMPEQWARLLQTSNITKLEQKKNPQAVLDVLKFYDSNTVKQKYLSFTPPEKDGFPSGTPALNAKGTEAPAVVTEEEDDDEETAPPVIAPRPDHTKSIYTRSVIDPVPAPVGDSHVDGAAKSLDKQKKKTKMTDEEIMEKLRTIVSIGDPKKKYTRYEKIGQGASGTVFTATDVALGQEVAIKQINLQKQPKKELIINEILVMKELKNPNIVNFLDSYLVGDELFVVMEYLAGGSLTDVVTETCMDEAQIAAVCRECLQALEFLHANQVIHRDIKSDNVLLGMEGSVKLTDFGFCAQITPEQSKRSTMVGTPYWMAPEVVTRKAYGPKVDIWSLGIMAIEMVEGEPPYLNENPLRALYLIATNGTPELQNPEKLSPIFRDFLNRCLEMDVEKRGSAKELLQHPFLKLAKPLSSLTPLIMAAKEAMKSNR

[13] = biological target: Tyrosine-protein kinase HCK (Homo sapiens) (UniProt P08631); assay: Inhibition of human HCK catalytic domain expressed in baculovirus assessed as substrate phosphorylation using fluorescence-labelled peptides as substrate at 1000 uM after 90 mins by microfluidic peptide phosphorylation assay
Chain of Tyrosine-protein kinase HCK (Homo sapiens) (P08631 2-526 limits assumed): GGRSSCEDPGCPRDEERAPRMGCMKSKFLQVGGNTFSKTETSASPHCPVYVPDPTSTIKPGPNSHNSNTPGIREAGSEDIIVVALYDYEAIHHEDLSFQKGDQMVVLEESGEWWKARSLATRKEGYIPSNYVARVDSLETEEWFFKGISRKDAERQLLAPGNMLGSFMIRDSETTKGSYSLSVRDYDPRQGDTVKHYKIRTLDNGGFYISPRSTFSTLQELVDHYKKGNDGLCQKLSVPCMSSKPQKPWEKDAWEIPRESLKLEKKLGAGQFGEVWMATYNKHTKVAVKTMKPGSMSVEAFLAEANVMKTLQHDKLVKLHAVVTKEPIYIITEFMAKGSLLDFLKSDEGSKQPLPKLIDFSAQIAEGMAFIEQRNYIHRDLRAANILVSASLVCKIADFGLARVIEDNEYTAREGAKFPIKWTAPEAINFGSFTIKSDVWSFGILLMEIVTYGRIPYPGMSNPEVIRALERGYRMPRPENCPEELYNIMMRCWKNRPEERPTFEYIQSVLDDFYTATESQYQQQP

[14] = biological target: Ribosomal protein S6 kinase alpha-1 (Homo sapiens) (UniProt Q15418); assay: Inhibition of human full length RSK1 expressed in baculovirus assessed as substrate phosphorylation using fluorescence-labelled peptides as substrate at 2 uM after 90 mins by microfluidic peptide phosphorylation assay
Chain of Ribosomal protein S6 kinase alpha-1 (Homo sapiens) (Q15418 whole entry): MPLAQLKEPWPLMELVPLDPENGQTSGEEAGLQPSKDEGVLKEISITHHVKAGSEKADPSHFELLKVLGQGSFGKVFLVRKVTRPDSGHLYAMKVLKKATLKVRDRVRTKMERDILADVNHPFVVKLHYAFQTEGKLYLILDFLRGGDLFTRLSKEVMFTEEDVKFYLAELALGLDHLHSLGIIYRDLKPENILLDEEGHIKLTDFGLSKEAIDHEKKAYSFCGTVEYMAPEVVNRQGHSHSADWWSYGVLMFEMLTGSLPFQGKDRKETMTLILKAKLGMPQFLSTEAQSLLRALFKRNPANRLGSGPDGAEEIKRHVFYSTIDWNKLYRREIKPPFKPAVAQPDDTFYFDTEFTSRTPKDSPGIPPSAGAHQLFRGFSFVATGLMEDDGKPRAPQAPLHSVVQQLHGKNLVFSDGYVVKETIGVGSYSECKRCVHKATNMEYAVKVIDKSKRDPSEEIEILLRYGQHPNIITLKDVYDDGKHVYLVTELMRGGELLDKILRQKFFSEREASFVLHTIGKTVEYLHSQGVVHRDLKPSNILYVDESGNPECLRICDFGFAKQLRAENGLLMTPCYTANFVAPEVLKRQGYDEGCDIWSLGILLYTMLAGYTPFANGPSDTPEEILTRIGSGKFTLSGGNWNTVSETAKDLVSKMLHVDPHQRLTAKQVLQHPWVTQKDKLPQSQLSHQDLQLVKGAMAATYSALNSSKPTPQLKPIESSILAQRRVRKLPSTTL

[15] = biological target: Serine/threonine-protein kinase Chk2 (Homo sapiens) (UniProt O96017); assay: Inhibition of human full length CHK2 expressed in baculovirus assessed as substrate phosphorylation using fluorescence-labelled peptides as substrate at 2 uM after 90 mins by microfluidic peptide phosphorylation assay
[16] = biological target: Protein kinase C eta type (Homo sapiens) (UniProt P24723); assay: Inhibition of human truncated PKC eta expressed in baculovirus assessed as substrate phosphorylation using fluorescence-labelled peptides as substrate at 2 uM after 90 mins by microfluidic peptide phosphorylation assay

c1nc(N2CCOCC2)c2nc[nH]c2n1
inhibition [1]: 76.5%

Clc1ccc(C2(c3ccc(-c4ncnc5[nH]cnc45)cc3)CCNCC2)cc1
inhibition [2]: 2%

C[C@H](CN(C)C)Oc1nc(Nc2cc3cccc(Cl)c3cn2)cnc1C#N
inhibition [3]: 1% | inhibition [4]: 0% | inhibition [5]: 11.5% | inhibition [6]: 0%

NCC1CN(c2ncnc3[nH]c4cnccc4c23)CCO1 (stereo unspecified)
inhibition [7]: 22.5%

CNCc1ccc(-c2ncnc3[nH]cnc23)cc1
inhibition [8]: 88% | inhibition [9]: 77% | inhibition [10]: 45.5%

NCCc1ccc(-c2ncnc3[nH]cnc23)cc1
inhibition [11]: 20.5%

NCC1CCN(c2ncnc3[nH]ccc23)CC1
inhibition [12]: 24.5%

c1cnc2[nH]ccc2c1
inhibition [13]: 30%

NC1CCN(c2ncnc3[nH]ccc23)CC1
inhibition [14]: 7.5% | inhibition [15]: 0% | inhibition [16]: 56.5%
